From the NIST ThermoML archive (doi:10.1016/j.jct.2017.03.006)

Assay: xn = mol fraction of the nth substance listed
Settings: Liquid; for mass density: Vibrating tube method; for viscosity: Concentric cylinders viscometry

Cc1ccc(C)c(C)c1 [1,2,4-trimethylbenzene] + CCC(C)O
Settings	mass density [kg/m3]	viscosity [mPa·s]
273.15 K, 60000 kPa, x2 = 0.1	917.1	–
273.15 K, 60000 kPa, x2 = 0.1989	911.9	–
273.15 K, 60000 kPa, x2 = 0.3011	906.2	–
273.15 K, 60000 kPa, x2 = 0.4002	900.7	–
273.15 K, 60000 kPa, x2 = 0.5001	894.6	–
273.15 K, 60000 kPa, x2 = 0.5997	888.3	–
273.15 K, 60000 kPa, x2 = 0.6999	881.3	–
273.15 K, 60000 kPa, x2 = 0.7999	873.8	–
273.15 K, 60000 kPa, x2 = 0.9	865.5	–
273.15 K, 70000 kPa, x2 = 0	926.2	–
273.15 K, 70000 kPa, x2 = 0.1	921.5	–
273.15 K, 70000 kPa, x2 = 0.1989	916.2	–
273.15 K, 70000 kPa, x2 = 0.3011	910.7	–
273.15 K, 70000 kPa, x2 = 0.4002	905.2	–
273.15 K, 70000 kPa, x2 = 0.5001	899.2	–
273.15 K, 70000 kPa, x2 = 0.5997	892.8	–
273.15 K, 70000 kPa, x2 = 0.6999	886	–
273.15 K, 70000 kPa, x2 = 0.7999	878.4	–
273.15 K, 70000 kPa, x2 = 0.9	870.2	–
273.15 K, 80000 kPa, x2 = 0	930.3	–
273.15 K, 80000 kPa, x2 = 0.1	925.7	–
273.15 K, 80000 kPa, x2 = 0.1989	920.6	–
273.15 K, 80000 kPa, x2 = 0.3011	915	–
273.15 K, 80000 kPa, x2 = 0.4002	909.6	–
273.15 K, 80000 kPa, x2 = 0.5001	903.5	–
273.15 K, 80000 kPa, x2 = 0.5997	897.2	–
273.15 K, 80000 kPa, x2 = 0.6999	890.3	–
273.15 K, 80000 kPa, x2 = 0.7999	882.8	–
273.15 K, 80000 kPa, x2 = 0.9	874.6	–
273.15 K, 90000 kPa, x2 = 0	934.2	–
273.15 K, 90000 kPa, x2 = 0.1	929.8	–
273.15 K, 90000 kPa, x2 = 0.1989	924.7	–
273.15 K, 90000 kPa, x2 = 0.3011	919.1	–
273.15 K, 90000 kPa, x2 = 0.4002	913.7	–
273.15 K, 90000 kPa, x2 = 0.5001	907.7	–
273.15 K, 90000 kPa, x2 = 0.5997	901.4	–
273.15 K, 90000 kPa, x2 = 0.6999	894.6	–
273.15 K, 90000 kPa, x2 = 0.7999	887.1	–
273.15 K, 90000 kPa, x2 = 0.9	878.9	–
273.15 K, 100000 kPa, x2 = 0	938	–
273.15 K, 100000 kPa, x2 = 0.1	933.7	–
273.15 K, 100000 kPa, x2 = 0.1989	928.6	–
273.15 K, 100000 kPa, x2 = 0.3011	923.1	–
273.15 K, 100000 kPa, x2 = 0.4002	917.7	–
273.15 K, 100000 kPa, x2 = 0.5001	911.7	–
273.15 K, 100000 kPa, x2 = 0.5997	905.5	–
273.15 K, 100000 kPa, x2 = 0.6999	898.7	–
273.15 K, 100000 kPa, x2 = 0.7999	891.2	–
273.15 K, 100000 kPa, x2 = 0.9	883	–
273.15 K, 110000 kPa, x2 = 0	941.7	–
273.15 K, 110000 kPa, x2 = 0.1	937.6	–
273.15 K, 110000 kPa, x2 = 0.1989	932.5	–
273.15 K, 110000 kPa, x2 = 0.3011	927	–
273.15 K, 110000 kPa, x2 = 0.4002	921.6	–
273.15 K, 110000 kPa, x2 = 0.5001	915.7	–
273.15 K, 110000 kPa, x2 = 0.5997	909.4	–
273.15 K, 110000 kPa, x2 = 0.6999	902.5	–
273.15 K, 110000 kPa, x2 = 0.7999	895.1	–
273.15 K, 110000 kPa, x2 = 0.9	887	–
273.15 K, 120000 kPa, x2 = 0	945.2	–
273.15 K, 120000 kPa, x2 = 0.1	941.3	–
273.15 K, 120000 kPa, x2 = 0.1989	936.2	–
273.15 K, 120000 kPa, x2 = 0.3011	930.8	–
273.15 K, 120000 kPa, x2 = 0.4002	925.3	–
273.15 K, 120000 kPa, x2 = 0.5001	919.5	–
273.15 K, 120000 kPa, x2 = 0.5997	913.2	–
273.15 K, 120000 kPa, x2 = 0.6999	906.4	–
273.15 K, 120000 kPa, x2 = 0.7999	899	–
273.15 K, 120000 kPa, x2 = 0.9	890.8	–
273.15 K, 130000 kPa, x2 = 0	948.6	–
273.15 K, 130000 kPa, x2 = 0.1	944.9	–
273.15 K, 130000 kPa, x2 = 0.1989	939.9	–
273.15 K, 130000 kPa, x2 = 0.3011	934.4	–
273.15 K, 130000 kPa, x2 = 0.4002	929	–
273.15 K, 130000 kPa, x2 = 0.5001	923.2	–
273.15 K, 130000 kPa, x2 = 0.5997	916.9	–
273.15 K, 130000 kPa, x2 = 0.6999	910.1	–
273.15 K, 130000 kPa, x2 = 0.7999	902.7	–
273.15 K, 130000 kPa, x2 = 0.9	894.6	–
273.15 K, 140000 kPa, x2 = 0	952	–
273.15 K, 140000 kPa, x2 = 0.1	948.2	–
273.15 K, 140000 kPa, x2 = 0.1989	943.3	–
273.15 K, 140000 kPa, x2 = 0.3011	937.6	–
273.15 K, 140000 kPa, x2 = 0.4002	932.3	–
273.15 K, 140000 kPa, x2 = 0.5001	926.7	–
273.15 K, 140000 kPa, x2 = 0.5997	920.4	–
273.15 K, 140000 kPa, x2 = 0.6999	913.4	–
273.15 K, 140000 kPa, x2 = 0.7999	906	–
273.15 K, 140000 kPa, x2 = 0.9	897.9	–
293.15 K, 100 kPa, x2 = 0	875.1	0.888
293.15 K, 100 kPa, x2 = 0.1	869.3	–
293.15 K, 100 kPa, x2 = 0.1001	–	0.885
293.15 K, 100 kPa, x2 = 0.2261	–	0.909
293.15 K, 100 kPa, x2 = 0.3	–	0.935
293.15 K, 100 kPa, x2 = 0.3966	–	1.013
293.15 K, 100 kPa, x2 = 0.5298	–	1.121
293.15 K, 100 kPa, x2 = 0.6001	–	1.25
293.15 K, 100 kPa, x2 = 0.7001	–	1.48
293.15 K, 100 kPa, x2 = 0.7997	–	1.85
293.15 K, 100 kPa, x2 = 0.9001	–	2.47
